Experimental data: patent US12630529B2, “GCN2 modulator compounds” (ALESTA THERAPEUTICS BV, priority 2020, dated 2026)

What follows are compounds tested against T1, GCN2 (Mus musculus, UniProt Q9QZ05) (assay: GCN2 inhibition cell-based assay (P-GCN2 Western blot in Neuro 2a cells)). Details: amino acid deprived media (DMEM lacking L-cysteine and methionine), 3 hours.
T1 construct: endogenous in cells; host or cells: Neuro 2a (N2a)
T1 sequence (Q9QZ05 whole entry): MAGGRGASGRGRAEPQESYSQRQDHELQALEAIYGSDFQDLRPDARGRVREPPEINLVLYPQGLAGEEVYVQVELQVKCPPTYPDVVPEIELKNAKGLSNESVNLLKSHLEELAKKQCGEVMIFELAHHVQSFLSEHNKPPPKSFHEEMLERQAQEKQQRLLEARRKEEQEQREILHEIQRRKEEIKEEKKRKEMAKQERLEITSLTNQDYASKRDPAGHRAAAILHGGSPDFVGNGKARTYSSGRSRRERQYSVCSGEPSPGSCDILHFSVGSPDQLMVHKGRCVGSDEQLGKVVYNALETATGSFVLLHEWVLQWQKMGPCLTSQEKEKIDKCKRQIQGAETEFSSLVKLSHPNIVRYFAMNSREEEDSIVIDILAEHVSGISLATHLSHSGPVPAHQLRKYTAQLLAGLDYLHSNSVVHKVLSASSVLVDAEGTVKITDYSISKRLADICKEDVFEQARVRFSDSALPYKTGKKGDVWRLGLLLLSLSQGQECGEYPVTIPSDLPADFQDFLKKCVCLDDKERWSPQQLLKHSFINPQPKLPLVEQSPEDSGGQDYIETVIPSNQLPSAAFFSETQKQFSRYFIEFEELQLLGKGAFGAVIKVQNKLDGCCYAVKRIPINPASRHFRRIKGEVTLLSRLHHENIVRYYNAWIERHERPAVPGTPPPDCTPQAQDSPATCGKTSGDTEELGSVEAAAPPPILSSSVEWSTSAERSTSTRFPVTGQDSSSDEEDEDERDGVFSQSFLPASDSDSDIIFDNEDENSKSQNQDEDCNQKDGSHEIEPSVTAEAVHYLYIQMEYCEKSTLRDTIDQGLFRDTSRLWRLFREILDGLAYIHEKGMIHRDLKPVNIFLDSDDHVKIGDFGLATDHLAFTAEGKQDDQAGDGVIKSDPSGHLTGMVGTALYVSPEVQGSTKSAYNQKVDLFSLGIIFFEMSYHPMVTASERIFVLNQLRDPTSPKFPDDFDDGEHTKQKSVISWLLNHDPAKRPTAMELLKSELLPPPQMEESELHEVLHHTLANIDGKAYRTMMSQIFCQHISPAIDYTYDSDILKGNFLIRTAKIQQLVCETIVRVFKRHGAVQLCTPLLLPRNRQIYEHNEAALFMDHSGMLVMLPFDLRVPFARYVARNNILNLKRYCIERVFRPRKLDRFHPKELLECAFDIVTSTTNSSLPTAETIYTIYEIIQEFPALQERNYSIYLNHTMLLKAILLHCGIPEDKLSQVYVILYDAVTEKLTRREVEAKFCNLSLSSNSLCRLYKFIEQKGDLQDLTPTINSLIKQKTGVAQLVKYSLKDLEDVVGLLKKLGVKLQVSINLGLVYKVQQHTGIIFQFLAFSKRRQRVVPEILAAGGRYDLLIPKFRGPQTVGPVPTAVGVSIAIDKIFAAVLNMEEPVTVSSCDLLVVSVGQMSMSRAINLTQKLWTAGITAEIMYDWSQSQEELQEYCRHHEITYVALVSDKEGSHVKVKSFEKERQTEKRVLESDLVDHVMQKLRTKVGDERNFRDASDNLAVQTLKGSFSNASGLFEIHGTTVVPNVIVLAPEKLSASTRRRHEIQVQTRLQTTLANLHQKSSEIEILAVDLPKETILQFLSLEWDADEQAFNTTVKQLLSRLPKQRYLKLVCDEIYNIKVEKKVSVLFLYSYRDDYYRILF
Procedure: Neuro 2a cells (N2a) were maintained at 37° C. and 5% CO2 in DMEM/F12 medium (Fisher Scientific) supplemented with 10% fetal bovine serum and 1% penicillin-streptomycin (complete medium). 300,000 cells/well were seeded in flat bottom 6 well plates 48 hours before treatment with the compounds.
Testing compounds were prepared at different concentrations ranging from 10 μM to 0.1 nM on DMEM medium lacking L-cysteine and methionine (DMEM-CM) (Gibco) and supplemented with 1% penicillin-streptomycin. Complete medium was used as control of non-stressed condition. After 48 hours, the medium was removed from each well and 2 mL per well of each treatment was added. Cells were treated for 3 hours at 37° C. and 5% CO2.
After the incubation time, each well was washed with sterile 1×PBS and then 100 μL of ice-cold lysis buffer supplemented with phosphatase and protease inhibitors was added. Lysates were transferred to 1.5 mL tubes and sonicated for 3 min, and total protein amounts were quantified using BCA assay (e.g., BCA Protein Assay Kit; Pierce) according to manufacturer instructions. Equal amount of proteins was loaded on SDS-PAGE gels for electrophoresis and then transferred onto 0.2 µm filter pore PVDF membranes.
Membranes were then blocked in blocking buffer containing 3% BSA/0.1% Tween/1×Tris-buffered saline (TBS) for 1 hour and then incubated overnight at 4° C. with agitation with anti-pGCN2 primary antibody (Abcam ab-75836), diluted 1:1,000 in blocking buffer. […] (Sigma Aldrich) was used as a loading control.
Membranes were then incubated with the corresponding secondary antibody to detect immune-reactive bands using enhanced chemiluminescence (e.g., ECL Western Blotting Substrate Pierce).
Images were acquired (e.g., using Chemidoc™ equipment) and quantitated by densitometry using ImageJ software. IC50 values were determined from a concentration-response curve using GraphPad prism software.
IC50 values from P-GCN2 inhibition assay after induction with amino acid deprived media in the presence of different concentrations of test compounds are shown in Table 2. For IC50 values: +++ refers to <10 nM of test compound; ++ refers to 10 nM to 100 nM of test compound; + refers to 100 nM to 1,000 nM of test compound and − refers to >1,000 nM of test compound.
Under GCN2-mediated stress conditions, resulting from an amino acid deprived medium, GCN2 is generally phosphorylated. Accordingly, inhibition of GCN2 phosphorylation as a result of the test compound indicates inhibition of the GCN2 pathway.
Compound `Nc1ncc2cc(-c3ccc(F)c(NS(=O)(=O)c4cc(Cl)ccc4Cl)c3F)ccc2n1` [Compound 12] has an IC50 of over 1000 nM. With `COc1cc(S(=O)(=O)Nc2ccc(F)c(-c3ccc4nc(N)ncc4c3)c2F)ccc1F` [Compound 143] the IC50 was 100 to 1000 nM. With `COc1ncc(Cl)cc1S(=O)(=O)Nc1ccc(F)c(-c2ccc3nc(NC(CO)CO)ncc3c2)c1F` [Compound 153] the IC50 was 10 to 100 nM. `Nc1ncc2cc(-c3cccc(NS(=O)(=O)c4cc(Cl)ccc4Cl)c3F)ccc2n1` [Compound 13] showed an IC50 of under 10 nM. `COc1ncc(Cl)cc1S(=O)(=O)Nc1cccc(-c2ccc3nc(N)ncc3c2)c1C` [Compound 51] was tested, and the IC50 was under 10 nM. With `Nc1ncc2cc(-c3c(F)ccc(NS(=O)(=O)c4ccsc4)c3F)ccc2n1` [Compound 140] the IC50 was over 1000 nM. In the case of `O=S(=O)(Nc1ccc(F)c(-c2ccc3nc(N[C@H]4CC[C@@H](O)CC4)ncc3c2)c1F)c1cc(Cl)ccc1C(F)(F)F` [Compound 165], the IC50 is reported as 10 to 100 nM. In the case of `CC(C)c1cccc(S(=O)(=O)Nc2ccc(F)c(-c3ccc4nc(N)ncc4c3)c2F)c1` [Compound 141], the IC50 is reported as over 1000 nM. Work on `COc1ncc(Cl)cc1S(=O)(=O)Nc1ccc(F)c(-c2ccc3nc(N)ccc3c2)c1F` [Compound 20] yielded an IC50 of over 1000 nM. Compound `Nc1ncc2cc(-c3c(F)ccc(NS(=O)(=O)c4cccs4)c3F)ccc2n1` [Compound 142] has an IC50 of over 1000 nM. `Nc1ncc2cc(-c3c(F)ccc(NS(=O)(=O)c4ccc(Cl)c(C(F)(F)F)c4)c3F)ccc2n1` [Compound 149] gave an IC50 of 100 to 1000 nM. `COc1ncc(Cl)cc1S(=O)(=O)Nc1ccc(F)c(-c2ccc3nc(N[C@@H](C)CO)ncc3c2)c1F` [Compound 157] was tested, and the IC50 was under 10 nM. `Cc1ccc(F)cc1S(=O)(=O)Nc1ccc(F)c(-c2ccc3nc(N)ncc3c2)c1F` [Compound 133] gave an IC50 of 10 to 100 nM. Compound `O=S(=O)(Nc1ccc(F)c(-c2ccc3nc(NCCO)ncc3c2)c1F)c1cc(Cl)cc(CO)c1Cl` [Compound 134] has an IC50 of under 10 nM. Compound `COc1ncc(Cl)cc1S(=O)(=O)Nc1ccc(F)c(-c2ccc3nc(N[C@H](C)CO)ncc3c2)c1F` [Compound 66] has an IC50 of under 10 nM. Work on `COc1ncc(Cl)cc1S(=O)(=O)Nc1ccc(F)c(-c2ccc3nc(N[C@H](CO)c4ccccc4)ncc3c2)c1F` [Compound 163] yielded an IC50 of 100 to 1000 nM. `Nc1ncc2cc(-c3c(F)ccc(NS(=O)(=O)c4cc(Cl)c(Cl)cc4Cl)c3F)ccc2n1` [Compound 150] gave an IC50 of 10 to 100 nM. With `O=S(=O)(Nc1ccc(F)c(-c2ccc3nc(NC4CCOC4)ncc3c2)c1F)c1cc(Cl)ccc1Cl` (centres unmarked) [Compound 168] the IC50 was under 10 nM. Work on `Nc1ncc2cc(-c3c(F)ccc(NS(=O)(=O)c4cc(Cl)cc(C(F)(F)F)c4)c3F)ccc2n1` [Compound 63] yielded an IC50 of 10 to 100 nM. Work on `Nc1ncc2cc(-c3c(F)ccc(N[S+]([O-])c4ccc(Cl)cc4Cl)c3F)ccc2n1` (centres unmarked) [Compound 15] yielded an IC50 of 100 to 1000 nM. `COc1ncc(Cl)cc1S(=O)(=O)Nc1ccc(F)c(-c2ccc3nc(N)ncc3c2)c1` [Compound 19] gave an IC50 of 100 to 1000 nM. In the case of `Nc1ncc2cc(-c3cc(F)cc(NS(=O)(=O)c4cc(Cl)ccc4Cl)c3)ccc2n1` [Compound 14], the IC50 is reported as over 1000 nM. `CCc1ccc(OC)c(S(=O)(=O)Nc2ccc(F)c(-c3ccc4nc(N)ncc4c3)c2F)c1` [Compound 120] gave an IC50 of over 1000 nM. `Nc1ncnc2ccc(-c3c(F)ccc(NS(=O)(=O)c4cc(Cl)ccc4Cl)c3F)cc12` [Compound 17] gave an IC50 of over 1000 nM. In the case of `Cc1cc(C)cc(S(=O)(=O)Nc2ccc(F)c(-c3ccc4nc(N)ncc4c3)c2F)c1` [Compound 113], the IC50 is reported as under 10 nM. `Nc1ncc2cc(-c3c(F)ccc(NS(=O)(=O)c4ccc(F)c(C(F)(F)F)c4)c3F)ccc2n1` [Compound 136] showed an IC50 of 100 to 1000 nM. For `Nc1ncc2cc(-c3c(F)ccc(NS(=O)(=O)c4cc(F)ccc4F)c3F)ccc2n1` [Compound 8], the IC50 was over 1000 nM. `COc1ccc(Cl)cc1S(=O)(=O)Nc1ccc(F)c(-c2ccc3nc(N)ncc3c2)c1F` [Compound 10] gave an IC50 of under 10 nM. With `O=S(=O)(Nc1ccc(F)c(-c2ccc3nc(N[C@H](CO)c4ccccc4)ncc3c2)c1F)c1cc(Cl)ccc1C(F)(F)F` [Compound 166] the IC50 was 100 to 1000 nM. Compound `Nc1ncc2cc(-c3c(F)ccc(NS(=O)(=O)c4cc(F)cc(F)c4)c3F)ccc2n1` [Compound 112] has an IC50 of over 1000 nM. With `Nc1ncc2cc(-c3c(F)ccc(NS(=O)(=O)c4cc(Cl)ccc4C(F)(F)F)c3F)ccc2n1` [Compound 58] the IC50 was under 10 nM. `CC(=O)Nc1ncc2cc(-c3c(F)ccc(NS(=O)(=O)c4cc(Cl)ccc4Cl)c3F)ccc2n1` [Compound 106] showed an IC50 of under 10 nM. `COc1ncc(Cl)cc1S(=O)(=O)Nc1ccc(Cl)c(-c2ccc3nc(N)ncc3c2)c1Cl` [Compound 131] was tested, and the IC50 was 10 to 100 nM. `Cc1c(NS(=O)(=O)c2cc(Cl)ccc2Cl)cccc1-c1ccc2nc(N)ncc2c1` [Compound 11] was tested, and the IC50 was 10 to 100 nM. `COc1ccc(S(=O)(=O)Nc2ccc(F)c(-c3ccc4nc(N)ncc4c3)c2F)cc1OC` [Compound 115] showed an IC50 of 10 to 100 nM. Compound `O=S(=O)(Nc1ccc(F)c(-c2cc(F)c3[nH]cnc3c2)c1F)c1cc(Cl)ccc1Cl` [Compound 18] has an IC50 of over 1000 nM. For `Nc1ncc2cc(-c3cccc4c3ccn4S(=O)(=O)c3cc(Cl)ccc3Cl)ccc2n1` [Compound 76], the IC50 was over 1000 nM. With `Nc1ccc2cc(-c3c(F)ccc(NS(=O)(=O)c4cc(Cl)ccc4Cl)c3F)ccc2n1` [Compound 107] the IC50 was over 1000 nM. Work on `COc1ncc(Cl)cc1S(=O)(=O)Nc1ccc(F)c(-c2ccc3nc(N[C@@H](CO)c4ccccc4)ncc3c2)c1F` [Compound 154] yielded an IC50 of 100 to 1000 nM. For `Nc1ncc2cc(-c3c(F)ccc(NS(=O)(=O)c4cccc(OC(F)(F)F)c4)c3F)ccc2n1` [Compound 139], the IC50 was 100 to 1000 nM. With `Nc1ncc2cc(-c3c(F)ccc(NS(=O)(=O)C4CCCCC4)c3F)ccc2n1` [Compound 81] the IC50 was over 1000 nM. In the case of `CNc1ncc2cc(-c3c(F)ccc(NS(=O)(=O)c4cc(Cl)cnc4OC)c3F)ccc2n1` [Compound 47], the IC50 is reported as under 10 nM. With `Nc1ncc2cc(-c3c(F)ccc(NS(=O)(=O)c4ccc(Cl)c(F)c4)c3F)ccc2n1` [Compound 146] the IC50 was 100 to 1000 nM. In the case of `Nc1ncc2cc(-c3c(F)ccc(NS(=O)(=O)c4ccc(F)c(Cl)c4)c3F)ccc2n1` [Compound 158], the IC50 is reported as 100 to 1000 nM. With `COc1ncc(Cl)cc1S(=O)(=O)Nc1ccc(F)c(-c2ccc3nc(N[C@H]4CC[C@H](O)CC4)ncc3c2)c1F` [Compound 65] the IC50 was under 10 nM. For `COc1ccc(S(=O)(=O)Nc2ccc(F)c(-c3ccc4nc(N)ncc4c3)c2F)cc1C` [Compound 117], the IC50 was over 1000 nM. Compound `Nc1ncc2cc(-c3c(F)ccc(NS(=O)(=O)c4cc(C(F)(F)F)ccc4C(F)(F)F)c3F)ccc2n1` [Compound 121] has an IC50 of under 10 nM. `Cc1ccc(S(=O)(=O)Nc2ccc(F)c(-c3ccc4nc(N)ncc4c3)c2F)cc1F` [Compound 159] was tested, and the IC50 was 10 to 100 nM. For `Nc1ncc2cc(-c3c(F)ccc(NS(=O)(=O)c4cc(Cl)cc(Cl)c4)c3F)ccc2n1` [Compound 59], the IC50 was under 10 nM. `O=S(=O)(Nc1ccc(F)c(-c2ccc3nc(N[C@H]4CC[C@H](O)CC4)ncc3c2)c1F)c1cc(Cl)cc(CO)c1Cl` [Compound 69] gave an IC50 of under 10 nM. In the case of `COc1ncc(Cl)cc1S(=O)(=O)Nc1ccc(F)c(-c2ccc3nc(NCCO)ncc3c2)c1F` [Compound 46], the IC50 is reported as under 10 nM. Work on `COc1ccc(S(=O)(=O)Nc2ccc(F)c(-c3ccc4nc(N)ncc4c3)c2F)cc1Cl` [Compound 148] yielded an IC50 of 100 to 1000 nM. For `COc1ncc(Cl)cc1S(=O)(=O)Nc1ccc(F)c(-c2cccc3nc(N)ncc23)c1F` [Compound 45], the IC50 was over 1000 nM. `Nc1ncc2cc(-c3c(F)ccc(NS(=O)(=O)c4cccc5cnccc45)c3F)ccc2n1` [Compound 64] was tested, and the IC50 was under 10 nM. For `COc1ncc(Cl)cc1S(=O)(=O)Nc1ccc(F)c(-c2ccc3nc(N[C@H]4CC[C@@H](O)CC4)ncc3c2)c1F` [Compound 129], the IC50 was under 10 nM. `O=S(=O)(Nc1ccc(F)c(-c2ccc3nc(N[C@@H](CO)c4ccccc4)ncc3c2)c1F)c1cc(Cl)ccc1C(F)(F)F` [Compound 167] gave an IC50 of 100 to 1000 nM. For `COc1ccc(C)cc1S(=O)(=O)Nc1ccc(F)c(-c2ccc3nc(N)ncc3c2)c1F` [Compound 118], the IC50 was 10 to 100 nM. `COc1ncc(Cl)cc1S(=O)(=O)Nc1ccc(F)c(-c2ccc3nc(N(C)C)ncc3c2)c1F` [Compound 155] was tested, and the IC50 was 100 to 1000 nM. In the case of `Cc1cc(S(=O)(=O)Nc2ccc(F)c(-c3ccc4nc(N)ncc4c3)c2F)ccc1F` [Compound 160], the IC50 is reported as over 1000 nM. `Nc1ncc2cc(-c3c(F)ccc(NS(=O)(=O)c4ccc(F)c(C(F)(F)F)c4)c3F)ccc2n1` [Compound 138] gave an IC50 of over 1000 nM. In the case of `Nc1ncc2cc(-c3c(F)ccc(NS(=O)(=O)c4ccc5c(c4)CCC5)c3F)ccc2n1` [Compound 161], the IC50 is reported as over 1000 nM. For `O=S(=O)(Nc1ccc(F)c(-c2ccc3nc(N[C@H]4CC[C@H](O)CC4)ncc3c2)c1F)c1cc(Cl)ccc1C(F)(F)F` [Compound 164], the IC50 was under 10 nM.
